Laboratory results from ChEMBL document CHEMBL1130963, “Design and construction of novel thrombin inhibitors featuring P3-P4 quaternary lactam dipeptide surrogates” (Bioorg Med Chem Lett, 1998).

Legend:
[1] = target: T1, Plasminogen (Homo sapiens, UniProt P00747); experiment: In vitro inhibitory activity was evaluated against thrombolytic enzyme plasmin
[2] = target: Prothrombin (Homo sapiens, UniProt P00734); experiment: In vitro inhibitory activity was evaluated against thrombin (FIIa)
[3] = Ratio of thrombolytic enzyme plasmin to thrombin (FIIa) was evaluated
[4] = target: Serine protease 1 (Homo sapiens, UniProt P07477)
[5] = target: T2, Coagulation factor X (Homo sapiens, UniProt P00742)
[6] = target: T1, Plasminogen; experiment: In vitro inhibitory activity was evaluated against thrombolytic enzyme plasmin; Inactive
[7] = target: T2, Coagulation factor X; experiment: In vitro inhibitory activity was evaluated against thrombin factor Xa (FXa); Inactive
[8] = Ratio of thrombin factor Xa (FXa) to thrombin (FIIa) was evaluated; Very high

T2 sequence (P00742 41-179 limits assumed): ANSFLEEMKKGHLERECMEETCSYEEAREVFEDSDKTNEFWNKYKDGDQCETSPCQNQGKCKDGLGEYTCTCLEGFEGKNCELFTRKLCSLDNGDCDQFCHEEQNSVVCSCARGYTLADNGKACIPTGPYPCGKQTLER
T2 sequence (P00742 235-488 limits assumed): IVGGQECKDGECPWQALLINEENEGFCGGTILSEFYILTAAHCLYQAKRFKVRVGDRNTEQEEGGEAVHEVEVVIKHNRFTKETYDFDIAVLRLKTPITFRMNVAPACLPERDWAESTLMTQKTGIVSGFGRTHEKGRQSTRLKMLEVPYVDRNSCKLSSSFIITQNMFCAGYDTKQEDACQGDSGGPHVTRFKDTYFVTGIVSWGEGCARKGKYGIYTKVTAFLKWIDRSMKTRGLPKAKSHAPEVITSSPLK
T1 sequence (P00747 97-580 limits assumed): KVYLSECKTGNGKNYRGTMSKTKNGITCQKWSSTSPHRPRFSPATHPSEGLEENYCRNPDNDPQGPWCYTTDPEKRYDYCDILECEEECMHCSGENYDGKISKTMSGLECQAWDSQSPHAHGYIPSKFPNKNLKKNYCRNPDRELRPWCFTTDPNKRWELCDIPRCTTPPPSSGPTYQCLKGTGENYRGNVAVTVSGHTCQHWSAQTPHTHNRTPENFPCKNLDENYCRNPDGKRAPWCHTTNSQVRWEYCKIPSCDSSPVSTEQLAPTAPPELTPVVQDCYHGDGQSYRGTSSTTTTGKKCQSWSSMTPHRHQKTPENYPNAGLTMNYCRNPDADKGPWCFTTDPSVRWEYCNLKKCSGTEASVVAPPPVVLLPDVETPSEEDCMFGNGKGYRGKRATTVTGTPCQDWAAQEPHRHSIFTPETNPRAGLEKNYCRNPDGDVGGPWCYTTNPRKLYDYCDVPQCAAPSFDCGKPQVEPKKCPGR
T1 sequence (P00747 581-810 limits assumed): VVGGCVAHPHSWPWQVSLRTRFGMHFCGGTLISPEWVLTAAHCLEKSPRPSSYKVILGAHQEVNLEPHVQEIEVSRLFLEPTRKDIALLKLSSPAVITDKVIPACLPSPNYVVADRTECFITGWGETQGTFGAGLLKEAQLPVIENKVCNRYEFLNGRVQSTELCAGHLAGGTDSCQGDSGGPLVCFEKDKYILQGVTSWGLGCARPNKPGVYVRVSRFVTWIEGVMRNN
Serine protease 1, sequence (P07477 whole entry): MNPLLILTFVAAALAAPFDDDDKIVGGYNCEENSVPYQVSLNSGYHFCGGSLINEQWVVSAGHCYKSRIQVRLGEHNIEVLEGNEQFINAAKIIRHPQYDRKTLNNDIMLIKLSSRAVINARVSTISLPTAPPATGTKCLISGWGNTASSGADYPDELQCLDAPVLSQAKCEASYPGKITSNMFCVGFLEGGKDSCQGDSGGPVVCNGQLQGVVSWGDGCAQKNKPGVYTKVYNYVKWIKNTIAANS

| SMILES | IC50 [1] | IC50 [2] | Ratio [3] | IC50 [4] | IC50 [5] | IC50 [6] | IC50 [7] | Ratio [8] |
| --- | --- | --- | --- | --- | --- | --- | --- | --- |
| CCOC(=O)[C@]1(NS(=O)(=O)Cc2ccccc2)CCCN(CC(=O)N[C@H]2CCCN(C(=N)N)[C@H]2O)C1=O | > 2500 nM | 64.4 nM | 3.1 | 202 nM | 43.2 nM |  |  |  |
| N=C(N)N1CCC[C@H](NC(=O)CN2CCC[C@H](NS(=O)(=O)Cc3ccccc3)C2=O)C1O (stereo partly drawn) | > 2500 nM |  | 128 |  |  |  |  |  |
| N=C(N)N1CCC[C@H](NC(=O)CN2CCC[C@@](N)(Cc3ccccc3)C2=O)[C@@H]1O |  | 138 nM | 18.2 | 2500 nM |  | Not Active | Not Active |  |
| N=C(N)N1CCC[C@H](NC(=O)CN2CCC[C@@](N)(Cc3ccccc3)C2=O)[C@H]1O |  | 2.07 nM | 67.1 | 139 nM |  | Not Active | Not Active | Very high |
| CCOC(=O)[C@]1(NS(=O)(=O)Cc2ccccc2)CCCN(CC(=O)N[C@H]2CCCN(C(=N)N)[C@@H]2O)C1=O | 271 nM | 1.1 nM | 1.8 | 2 nM | 5.78 nM |  |  |  |
